For test [1], the target named is T1, aromatase (Homo sapiens, UniProt P11511).
T1 construct: JEG-3 which constitutively expresses high amount of aromatase and steroid sulfatase; endogenous in cells; host or cells: JEG-3
T1 sequence (P11511 1-503): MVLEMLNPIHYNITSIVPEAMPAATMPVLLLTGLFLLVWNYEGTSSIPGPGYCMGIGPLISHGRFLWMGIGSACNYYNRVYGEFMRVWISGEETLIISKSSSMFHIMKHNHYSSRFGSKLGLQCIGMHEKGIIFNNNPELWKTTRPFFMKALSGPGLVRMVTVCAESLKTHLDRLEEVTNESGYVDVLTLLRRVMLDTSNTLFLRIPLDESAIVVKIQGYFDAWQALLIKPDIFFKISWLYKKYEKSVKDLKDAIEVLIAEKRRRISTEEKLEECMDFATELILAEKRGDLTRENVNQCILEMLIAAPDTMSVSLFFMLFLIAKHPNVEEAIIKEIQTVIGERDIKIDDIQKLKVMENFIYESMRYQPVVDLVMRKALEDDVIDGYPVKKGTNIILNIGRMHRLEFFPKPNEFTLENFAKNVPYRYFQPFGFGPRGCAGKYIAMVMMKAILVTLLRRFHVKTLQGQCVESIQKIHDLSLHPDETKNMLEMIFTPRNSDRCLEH
Briefly: Aromatase inhibition assay in JEG-3 cells ([1β-3H] androstenedione, tritiated water release). The class given is cell-based. Conditions: 1.25 hour incubation, duplicate. As to the method:
(§1) Aromatase and steroid sulfatase enzymes inhibitions were evaluated in the human chorionic carcinoma cell line JEG-3 which constitutively expresses high amount of aromatase and steroid sulfatase.
For aromatase inhibition assay, JEG-3 cells were seeded into 96-well plates at 35,000 cells/well and maintained in MEM containing supplements. When reaching 80% confluent, the cells were washed once with serum-free MEM, incubated with [1β-^3H] androstenedione (A4, 0.2 μCi/ml) for 1.25 hour in the presence of the test substances added in a concentration series. The product, tritiated water (^3H2O), was separated using 2.5% (w/v) dextran-coated charcoal at 4-8° C. for 2 hours. The supernatant radioactivity was measured by a MicroBeta scintillation counter.
(§2) Experiments are performed in duplicate. The inhibitory concentration of 50% of the enzymatic activity is calculated.

Test [2] deals with T2, steroid sulfatase (Homo sapiens, UniProt P08842).
T2 construct: JEG-3 which constitutively expresses high amount of aromatase and steroid sulfatase; endogenous in cells; host or cells: JEG-3
T2 sequence (P08842 22-583): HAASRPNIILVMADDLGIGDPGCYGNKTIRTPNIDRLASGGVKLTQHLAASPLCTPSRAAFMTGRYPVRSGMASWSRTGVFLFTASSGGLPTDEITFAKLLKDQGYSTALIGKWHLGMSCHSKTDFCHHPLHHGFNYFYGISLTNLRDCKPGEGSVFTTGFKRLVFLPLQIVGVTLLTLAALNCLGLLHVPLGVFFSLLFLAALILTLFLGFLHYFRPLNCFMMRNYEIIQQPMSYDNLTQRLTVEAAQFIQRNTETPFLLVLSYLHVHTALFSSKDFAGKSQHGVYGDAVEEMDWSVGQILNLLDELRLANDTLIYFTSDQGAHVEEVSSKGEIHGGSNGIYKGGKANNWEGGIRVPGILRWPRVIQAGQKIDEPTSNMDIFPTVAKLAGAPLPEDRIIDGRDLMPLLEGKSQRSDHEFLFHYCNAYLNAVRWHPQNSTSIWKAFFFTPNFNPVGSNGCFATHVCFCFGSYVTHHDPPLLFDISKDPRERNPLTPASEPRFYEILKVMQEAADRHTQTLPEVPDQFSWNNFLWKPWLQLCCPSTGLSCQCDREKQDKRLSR
Briefly: Steroid sulfatase (STS) inhibition assay in JEG-3 cells ([6,7-3H] estrone sulfate). In kind it is cell-based. Conditions: 1 hour at 37° C., duplicate. How it is done: as §1
For STS assay, JEG-3 cells were seeded into 24-well culture plates at 150,000 cells/ml/well and maintained in MEM containing supplements overnight. When reaching 80% confluent, the cells were washed once with serum-free MEM, loaded with 1 ml of substrate mix containing [6,7-3H] Estrone sulfate (E1S, 0.6 μCi/ml) and [4-14C] Estrone (E1, 4 nCi/ml) in the presence of compounds in a concentration series, and incubated for 1 hour at 37° C. The product [3H]E1 was separated from E1S by toluene partition using [4-14C]E1 to monitor extraction procedural losses, and the toluene fraction radioactivity was measured by a MicroBeta scintillation counter.
as §2

Consider `N#Cc1ccc(Cn2cnc3ccccc32)cc1-c1ccc(OS(N)(=O)=O)cc1` [Example 1, 5′-((1H-Benzo[d]imidazol-1-yl)methyl)-2′-cyano-[1,1′-biphenyl]-4-yl sulfamate], for which the IC50 worked out at 1.2 nM in test [1] and 2 nM in test [2].

Consider `N#Cc1ccc(Nn2cnc3ccccc32)cc1-c1ccc(OS(N)(=O)=O)cc1` [Example 2, 5′-(1H-Benzo[d]imidazol-1-ylamino)-2′-cyano-[1,1′-biphenyl]-4-yl sulfamate], for which the results for the IC50 in test [1] and in test [2] were 2 nM and 6.8 nM, respectively.

Turning to `Cc1nc2ccccc2n1Cc1ccc(C#N)c(-c2ccc(OS(N)(=O)=O)cc2)c1` [Example 3, 2′-Cyano-5′-((2-methyl-1H-benzo[d]imidazol-1-yl)methyl)biphenyl-4-yl sulfamate], the IC50 was more than 60 nM in test [1] and 18.9 nM in test [2].

As for `N#Cc1ccc(Cn2nnc3ccccc32)cc1-c1ccc(OS(N)(=O)=O)cc1` [Example 4, 5′-((1H-Benzo[d][1,2,3]triazol-1-yl)methyl)-2′-cyano-[1,1′-biphenyl]-4-yl sulfamate], the figures for the IC50 in test [1] and in test [2] were 4.8 nM and 12.1 nM, respectively.

Take `CN(c1ccc(C#N)c(-c2ccc(OS(N)(=O)=O)cc2)c1)n1cnc2ccccc21` [Example 5, 5′-((1H-Benzo[d]imidazol-1-yl)(methyl)amino)-2′-cyano-[1,1′-biphenyl]-4-yl sulfamate]: the half-inhibitory concentration (IC50) in test [1] worked out at 3.2 nM; in test [2], 25.6 nM.

As to `N#Cc1ccc(N(CC2CC2)n2cnc3ccccc32)cc1-c1ccc(OS(N)(=O)=O)cc1` [Example 6, 5′-((1H-Benzo[d]imidazol-1-yl)(cyclopropylmethyl)amino)-2′-cyano-[1,1′-biphenyl]-4-yl sulfamate], the values for the IC50 in test [1] and in test [2] were 53.2 nM and more than 60 nM, respectively.

With `N#Cc1ccc(Cn2c(C(F)(F)F)nc3ccccc32)cc1-c1ccc(OS(N)(=O)=O)cc1` [Example 7, 2′-Cyano-5′-((2-(trifluoromethyl)-1H-benzo[d]imidazol-1-yl)methyl)biphenyl-4-yl sulfamate], the IC50 in test [1] is more than 60 nM; in test [2] it was 16.4 nM.

With `N#Cc1ccc(Cn2nnc3cccnc32)cc1-c1ccc(OS(N)(=O)=O)cc1` [Example 8, 5′-((3H-[1,2,3]Triazolo[4,5-b]pyridin-3-yl)methyl)-2′-cyano-[1,1′-biphenyl]-4-yl sulfamate], the figures for the IC50 in test [1] and in test [2] were 6.3 nM and 23.6 nM, respectively.

As to `N#Cc1ccc(Cn2cnc3ccccc32)nc1-c1ccc(OS(N)(=O)=O)cc1` [Example 10, 4-(6-((1H-Benzo[d]imidazol-1-yl)methyl)-3-cyanopyridin-2-yl)phenyl sulfamate], the IC50 in test [1] was 3.2 nM; in test [2] it was 9.1 nM.

Consider `N#Cc1ccc(Nn2nnc3ccccc32)cc1-c1ccc(OS(N)(=O)=O)cc1` [Example 11, 5′-(1H-Benzo[d][1,2,3]triazol-1-ylamino)-2′-cyanobiphenyl-4-yl sulfamate], for which the IC50 in test [1] was found to be 1.2 nM; in test [2], 18.4 nM.

With `N#Cc1ccc(Cn2cnc3cccnc32)cc1-c1ccc(OS(N)(=O)=O)cc1` [Example 12, 5′-((3H-Imidazo[4,5-b]pyridin-3-yl)methyl)-2′-cyano-[1,1′-biphenyl]-4-yl sulfamate], the figures for the IC50 in test [1] and in test [2] were 0.5 nM and 7 nM, respectively.

Turning to `CN(c1ccc(C#N)c(-c2ccc(OS(N)(=O)=O)cc2)c1)n1nnc2ccccc21` [Example 13, 5′-((1H-Benzo[d][1,2,3]triazol-1-yl)(methyl)amino)-2′-cyanobiphenyl-4-yl sulfamate], the IC50 in test [1] was 13.1 nM; in test [2] it was more than 60 nM.

In the case of `N#Cc1ccc(Cn2cnc3cccnc32)nc1-c1ccc(OS(N)(=O)=O)cc1` [Example 14, 4-(6-((3H-Imidazo[4,5-b]pyridin-3-yl)methyl)-3-cyanopyridin-2-yl)phenyl sulfamate], the IC50 in test [1] was determined as 7 nM; in test [2] it was 21.7 nM.

With `N#Cc1cnc(Nn2cnc3ccccc32)nc1-c1ccc(OS(N)(=O)=O)cc1` [Example 15, 4-(2-(1H-Benzo[d]imidazol-1-ylamino)-5-cyanopyrimidin-4-yl)phenyl sulfamate], the values for the IC50 in test [1] and in test [2] were 17.5 nM and 14.6 nM, respectively.

`CN(c1ncc(C#N)c(-c2ccc(OS(N)(=O)=O)cc2)n1)n1cnc2ccccc21` [Example 16, 4-(2-((1H-Benzo[d]imidazol-1-yl)(methyl)amino)-5-cyanopyrimidin-4-yl)phenyl sulfamate]: the IC50 amounted to 6.4 nM in test [1] and 22 nM in test [2].

Consider `CSc1cc(-c2cc(Cn3cnc4ccccc43)ccc2C#N)ccc1OS(N)(=O)=O` [Example 18, 5′-((1H-Benzo[d]imidazol-1-yl)methyl)-2′-cyano-3-(methylthio)-[1,1′-biphenyl]-4-yl sulfamate], for which the figures for the IC50 in test [1] and in test [2] were 1.2 nM and 26.4 nM, respectively.

As for `CSc1ccc(-c2cc(Cn3cnc4ccccc43)ccc2C#N)cc1OS(N)(=O)=O` [Example 19, 5′-((1H-benzo[d]imidazol-1-yl)methyl)-2′-cyano-4-(methylthio)-[1,1′-biphenyl]-3-yl sulfamate], the IC50 in test [1] is 2.2 nM; in test [2], more than 60 nM.

Regarding `CSc1cc(-c2cc(Nn3cnc4ccccc43)ccc2C#N)ccc1OS(N)(=O)=O` [Example 20, 5′-((1H-Benzo[d]imidazol-1-yl)amino)-2′-cyano-3-(methylthio)-[1,1′-biphenyl]-4-yl sulfamate], the IC50 in test [1] was 2.9 nM; in test [2], 52.3 nM.

Take `CSc1ccc(-c2cc(Nn3cnc4ccccc43)ccc2C#N)cc1OS(N)(=O)=O` [Example 21, 5′-((1H-Benzo[d]imidazol-1-yl)amino)-2′-cyano-4-(methylthio)-[1,1′-biphenyl]-3-yl sulfamate]: the IC50 in test [1] is 2.2 nM; in test [2], more than 60 nM.

On to `CN(c1ccc(C#N)c(-c2ccc(OS(N)(=O)=O)cc2)n1)n1cnc2ccccc21` [Example 23, 4-(6-((1H-Benzo[d]imidazol-1-yl)(methyl)amino)-3-cyanopyridin-2-yl)phenyl sulfamate], for which the IC50 turned out to be 6.5 nM in test [1] and 7.1 nM in test [2].

Take `N#Cc1cnc(Cn2cnc3cccnc32)nc1-c1ccc(OS(N)(=O)=O)cc1` [Example 25, 4-(2-((3H-Imidazo[4,5-b]pyridin-3-yl)methyl)-5-cyanopyrimidin-4-yl)phenyl sulfamate]: the results for the IC50 in test [1] and in test [2] were 6.2 nM and 10.7 nM, respectively.

Consider `CSc1cc(-c2cc(N(C)n3cnc4ccccc43)ccc2C#N)ccc1OS(N)(=O)=O` [Example 27, 5′-((1H-Benzo[d]imidazol-1-yl)(methyl)amino)-2′-cyano-3-(methylthio)-[1,1′-biphenyl]-4-yl sulfamate], for which the results for the IC50 in test [1] and in test [2] were 4.6 nM and 17.8 nM, respectively.

For the compound `CSc1ccc(-c2cc(N(C)n3cnc4ccccc43)ccc2C#N)cc1OS(N)(=O)=O` [Example 28, 5′-((1H-Benzo[d]imidazol-1-yl)(methyl)amino)-2′-cyano-4-(methylthio)-[1,1′-biphenyl]-3-yl sulfamate], the IC50 was 5.8 nM in test [1] and more than 60 nM in test [2].

Take `CN(c1cc(-c2ccc(OS(N)(=O)=O)cc2)c(C#N)cn1)n1cnc2ccccc21` [Example 29, 4-(2-((1H-Benzo[d]imidazol-1-yl)(methyl)amino)-5-cyanopyridin-4-yl)phenyl sulfamate]: the results for the IC50 in test [1] and in test [2] were 2.5 nM and 37.6 nM, respectively.

Consider `N#Cc1ccc(Cn2cnc3ccccc32)cc1-c1ccc(OS(N)(=O)=O)cn1` [Example 30, 6-(5-((1H-Benzo[d]imidazol-1-yl)methyl)-2-cyanophenyl)pyridin-3-yl sulfamate], for which the IC50 was 5.9 nM in test [1] and 7.2 nM in test [2].
